Here are results for 41 compounds from patent US6756382B2, “Amide substituted imidazoquinolines” (3M Innovative Properties Company, priority 1999, dated 2004).

One test has as its system interferon (α). As to the kind of experiment: Cytokine induction in human cells: interferon secreted by PBMCs, ELISA. Conditions: PBMC, incubated 18 to 24 hours, interferon determined by ELISA, read-out: Lowest Effective Concentration (μM) Interferon. The test is classed as cell-based. The text has this:
(§1) An in vitro human blood cell system was used to assess cytokine induction by compounds of the invention. Activity is based on the measurement of interferon and tumor necrosis factor (α) (IFN and TNF, respectively) secreted into culture media as described by Testerman et. al. In “Cytokine Induction by the Immunomodulators Imiquimod and S-27609”, Journal of Leukocyte Biology, 58, 365-372 (September, 1995).
(§2) Whole blood is collected by venipuncture into EDTA vacutainer tubes from healthy human donors. Peripheral blood mononuclear cells (PBMCs) are separated from whole blood by density gradient centrifugation using Histopaque®-1077 (Sigma Chemicals, St. Louis, Mo.). The PBMCs are suspended at 3-4×10^6 cells/mL in RPMI 1640 medium containing 10% fetal bovine serum, 2 mM L-glutamine and 1% penicillin/streptomycin solution (RPMI complete). The PBMC suspension is added to 48 well flat bottom sterile tissue culture plates (Costar, Cambridge, Mass. or Becton Dickinson Labware, Lincoln Park, N.J.) containing an equal volume of RPMI complete media containing test compound.
(§3) The compounds are solubilized in dimethyl sulfoxide (DMSO). The DMSO concentration should not exceed a final concentration of 1% for addition to the culture wells.
(§4) The solution of test compound is added at 60 μM to the first well containing RPMI complete and serial (three fold or ten fold) dilutions are made. The PBMC suspension is then added to the wells in an equal volume, bringing the test compound concentrations to the desired range. The final concentration of PBMC suspension is 1.5-2×10^6 cells/mL. The plates are covered with sterile plastic lids, mixed gently and then incubated for 18 to 24 hours at 37° C. in a 5% carbon dioxide atmosphere.
(§5) Following incubation the plates are centrifuged for 5-10 minutes at 1000 rpm (˜200×g) at 4° C. The cell culture supernatant is removed with a sterile polypropylene pipet and transferred to sterile polypropylene tubes. Samples are maintained at −30 to −70° C. until analysis. The samples are analyzed for interferon (α) by either ELISA or bioassay and for tumor necrosis factor (α) by ELISA.
Interferon (α) concentration is determined by ELISA using a Human Multi-Species kit from PBL Biomedical Laboratories, New Brunswick, N.J.
(§6) The table below lists the lowest concentration found to induce interferon and the lowest concentration found to induce tumor necrosis factor for each compound. […] Unless otherwise indicated, the interferon biosynthesis was determined by ELISA.

Test [1] has as its system tumor necrosis factor (α). As to the kind of experiment: Cytokine induction in human cells: tumor necrosis factor (α) secreted by PBMCs, ELISA. Format: cell-based. Conditions: PBMC, incubated 18 to 24 hours, TNF determined by ELISA, read-out: Lowest Effective Concentration (μM) Tumor Necrosis Factor.
Source text: as §1, §2, §3, §4, §5
Tumor necrosis factor (α) (TNF)concentration is determined using ELISA kits available from Genzyme, Cambridge, Mass.; R&D Systems, Minneapolis, Minn.; or Pharmingen, San Diego, Calif.
as §6

Turning to `Nc1nc2ccccc2c2c1ncn2CCCCNC(=O)c1ccc([N+](=O)[O-])o1` [Example 96], the minimal effective concentration came to 0.37 µM in the test on interferon (α) and 10 µM in test [1].
With `COC(=O)CCCC(=O)NCCCCn1cnc2c(N)nc3ccccc3c21` [Example 117], the minimal effective concentration in the test with interferon (α) was 3.33 µM; in test [1], over 30 µM.
`Nc1nc2ccccc2c2c1ncn2CCCCCCCCNC(=O)c1ccccc1` [Example 191, N-[8-(4-amino-1H-imidazo[4,5-c]quinolin-1-yl)octyl]benzamide]: the minimal effective concentration (with interferon (α); in test [1]) was over 30 µM each time.
As to `CCOCc1nc2c(N)nc3ccccc3c2n1CCNC(=O)CCCCC1SCC2NC(=O)NC21` (stereo not shown) [Example 29, N^1-[2-(4-Amino-2-(ethoxymethyl)-1H-imidazo[4,5-c]quinolin-1-yl)ethyl]-5-(2-oxoperhydrothieno[3,4-d]imidazol-4-yl)pentanamide Ditrifluoroacetate], the minimal effective concentration with interferon (α) was 0.12 µM; in test [1], over 30 µM.
Take `COC(=O)CCC(=O)NCCCCn1cnc2c(N)nc3ccccc3c21` [Example 113]: the values for the minimal effective concentration (in the test with interferon (α); in test [1]) were 3.33 µM and over 30 µM, respectively.
Consider `COc1ccc(CN(CCCCn2cnc3c(N)nc4ccccc4c32)C(C)=O)c(OC)c1OC` [Example 145], for which the minimal effective concentration in the test on interferon (α) is 1.11 µM; in test [1] it was over 30 µM.
The corresponding values for `CCCCc1nc2c(N)nc3ccccc3c2n1CCCCNC(=O)c1ccccc1` [Example 6, N^1-[4-(4-Amino-2-butyl-1H-imidazo[4,5-c]quinolin-1-yl)butyl]benzamide] are 0.12 µM and 1.11 µM.
On to `COCCc1nc2c(N)nc3c(c2n1CCCCNC(=O)c1ccncc1)CCCC3` [Example 173], for which the figures for the minimal effective concentration (in the test on interferon (α); in test [1]) were 0.001 µM and 1 µM, respectively.
`COCCc1nc2c(N)nc3ccccc3c2n1CCCCNC(=O)[C@@H]1C[C@H]1c1ccccc1` [Example 153]: the minimal effective concentration in the test with interferon (α) worked out at 0.0001 µM; in test [1], 0.1 µM.
Turning to `COc1cccc(CN(CCCCn2cnc3c(N)nc4ccccc4c32)C(C)=O)c1OC` [Example 131], the minimal effective concentration with interferon (α) was 3.33 µM; in test [1], over 30 µM.
For `Nc1nc2ccccc2c2c1ncn2CCCCNC(=O)c1cccc(Br)c1` [Example 89], the minimal effective concentration in the test on interferon (α) was 1.11 µM; in test [1] it was 10 µM.
In the case of `CC(=O)N(CCCCn1cnc2c(N)nc3ccccc3c21)Cc1ccc(Br)cc1` [Example 121], the minimal effective concentration in the test with interferon (α) is 1.11 µM; in test [1], over 30 µM.
On to `CC(=O)CCCC(=O)NCCCCn1cnc2c(N)nc3ccccc3c21` [Example 118], for which the minimal effective concentration is 1.11 µM in the test on interferon (α) and over 30 µM in test [1].
Consider `COCCc1nc2c(N)nc3ccccc3c2n1CCCCNC(=O)c1cccc2ccccc12` [Example 154], for which the minimal effective concentration is 0.0001 µM in the test on interferon (α) and over 10 µM in test [1].
On to `Nc1nc2ccccc2c2c1ncn2CCCCNC(=O)CC1C=CCC1` (stereo not shown) [Example 110], for which the minimal effective concentration in the test with interferon (α) turned out to be 1.11 µM; in test [1], 3.33 µM.
In the same order, the values of `Nc1nc2ccccc2c2c1ncn2CCCCNC(=O)C1(c2ccc(Cl)cc2)CCCC1` [Example 91] are 3.33 µM and over 30 µM.
As to `COc1ccc(CN(CCCCn2cnc3c(N)nc4ccccc4c32)C(C)=O)cc1` [Example 120], the results for the minimal effective concentration (in the test with interferon (α); in test [1]) were 0.37 µM and over 30 µM, respectively.
For the compound `COc1ccc(CC(=O)NCCCCn2cnc3c(N)nc4ccccc4c32)cc1` [Example 98], the minimal effective concentration was determined as 1.11 µM in the test on interferon (α) and 10 µM in test [1].
Consider `COC(=O)CCCCC(=O)NCCCCn1cnc2c(N)nc3ccccc3c21` [Example 95], for which the minimal effective concentration in the test with interferon (α) was 3.33 µM; in test [1], 30 µM.
Take `COCCc1nc2c(N)nc3ccccc3c2n1CCCCNC(=O)c1ccc(OC)c(OC)c1` [Example 158]: the values for the minimal effective concentration (in the test with interferon (α); in test [1]) were 0.001 µM and 1 µM, respectively.
With `Nc1nc2ccccc2c2c1ncn2CCCCNC(=O)c1ccco1` [Example 85], the figures for the minimal effective concentration (with interferon (α); in test [1]) were 1.11 µM and 10 µM, respectively.
For the compound `CC(=O)N(CCCCn1cnc2c(N)nc3ccccc3c21)Cc1cc(Br)ccc1O` [Example 122], the minimal effective concentration in the test on interferon (α) is 3.33 µM; in test [1] it was over 30 µM.
On to `Nc1nc2ccccc2c2c1ncn2CCCCNC(=O)c1ccc(CN2CCOCC2)cc1` [Example 103], for which the minimal effective concentration in the test on interferon (α) was 0.37 µM; in test [1] it was 10 µM.
Consider `CC(=O)N(CCCCn1cnc2c(N)nc3ccccc3c21)Cc1ccccc1Cl` [Example 124], for which the minimal effective concentration in the test with interferon (α) was found to be 1.11 µM; in test [1], 3.33 µM.
In the same order, the values of `CC(=O)N(CCCCn1cnc2c(N)nc3ccccc3c21)CCCc1ccccc1` [Example 136] are 1.11 µM and over 30 µM.
Take `C=CCCC(=O)NCCCCn1cnc2c(N)nc3ccccc3c21` [Example 116]: the minimal effective concentration in the test with interferon (α) is 0.37 µM; in test [1], 10 µM.
In the case of `N#CCC(=O)NCCCCn1cnc2c(N)nc3ccccc3c21` [Example 112], the minimal effective concentration was 10 µM in the test with interferon (α) and over 30 µM in test [1].
Regarding `COCCc1nc2c(N)nc3ccccc3c2n1CCCCNC(=O)C1CCCCC1` [Example 150], the minimal effective concentration in the test on interferon (α) turned out to be 0.001 µM; in test [1] it was 0.1 µM.
As to `COc1cc(C(=O)NCCCCn2cnc3c(N)nc4ccccc4c32)cc(OC)c1OC` [Example 93], the minimal effective concentration in the test on interferon (α) was determined as 1.11 µM; in test [1] it was 30 µM.
For `C#CCCCCCCCCC(=O)NCCCCn1cnc2c(N)nc3ccccc3c21` [Example 119], the minimal effective concentration (with interferon (α); in test [1]) was over 30 µM each time.
For `C=CCCCCCCCCC(=O)NCCCCn1cnc2c(N)nc3ccccc3c21` [Example 92], the minimal effective concentration with interferon (α) is 3.33 µM; in test [1] it was over 30 µM.
Take `Nc1nc2ccccc2c2c1ncn2CCCCNC(=O)c1cc(Cl)cc(Cl)c1` [Example 111]: the values for the minimal effective concentration (in the test with interferon (α); in test [1]) were 1.11 µM and over 30 µM, respectively.
Regarding `CC(=O)N(CCCCn1cnc2c(N)nc3ccccc3c21)Cc1cc(Cl)cc(Cl)c1` [Example 128], the minimal effective concentration with interferon (α) was found to be 3.33 µM; in test [1], 1.11 µM.
`Nc1nc2ccccc2c2c1ncn2CCCCNC(=O)c1ccc(OC(F)(F)F)cc1` [Example 102]: the minimal effective concentration in the test on interferon (α) was 3.33 µM; in test [1] it was over 30 µM.
The corresponding values for `COc1ccc(OC)c(CN(CCCCn2cnc3c(N)nc4ccccc4c32)C(C)=O)c1` [Example 130] are 1.11 µM and 10 µM.
In the same order, the values of `Nc1nc2ccccc2c2c1ncn2CCCCNC(=O)CC(c1ccccc1)c1ccccc1` [Example 109] are over 30 µM and over 30 µM.
`COc1cc(CN(CCCCn2cnc3c(N)nc4ccccc4c32)C(C)=O)cc(OC)c1OC` [Example 146]: the minimal effective concentration in the test on interferon (α) was 3.33 µM; in test [1], over 30 µM.
As to `Nc1nc2ccccc2c2c1ncn2CCCCNC(=O)c1cccc2ccccc12` [Example 38, N^1-[4-(4-Amino-1H-imidazo[4,5-c]quinolin-1-yl)butyl]-1-naphthamide], the minimal effective concentration came to 0.12 µM with interferon (α) and 3.33 µM in test [1].
`COCCc1nc2c(N)nc3ccccc3c2n1CCCCNC(=O)C=C(C)C` [Example 148]: the minimal effective concentration with interferon (α) was found to be 0.01 µM; in test [1], 1 µM.
Regarding `Nc1nc2ccccc2c2c1ncn2CCCCNC(=O)CC1CCCC1` [Example 99], the results for the minimal effective concentration (with interferon (α); in test [1]) were 0.37 µM and 3.33 µM, respectively.
For `COc1ccccc1CCNCc1ccc(C(=O)NCCCCn2cnc3c(N)nc4ccccc4c32)cc1` [Example 106], the minimal effective concentration is 3.33 µM with interferon (α) and over 30 µM in test [1].
